Data reported in ChEMBL document CHEMBL1132825, “Aminoanthraquinones as novel ligands at the polyamine binding site on the N-methyl-D-aspartate receptor complex” (Bioorg Med Chem Lett, 2000).

Columns and labels:
Glutamate NMDA receptor [1] = assay: Displacement of [3H]-SPD from N-methyl-D-aspartate glutamate receptor; format: protein-complex assay, Rattus norvegicus
Glutamate NMDA receptor [2] = assay: Displacement of [3H]MK-801 from N-methyl-D-aspartate glutamate receptor; format: protein-complex assay, Rattus norvegicus

| IC50 (Glutamate NMDA receptor [1]) | IC50 (Glutamate NMDA receptor [2]) | SMILES |
| --- | --- | --- |
| 184 µM | 232 µM | Nc1cccc2c1C(=O)c1c(N)ccc(N)c1C2=O |
| 218 µM | 140 µM | Nc1cccc2c1C(=O)c1ccccc1C2=O |
| 179 µM | 158 µM | Nc1ccc(O)c2c1C(=O)c1ccccc1C2=O |
| 338 µM | 323 µM | Nc1cccc2c1C(=O)c1cccc(N)c1C2=O |
| 602 µM | 414 µM | Nc1ccc2c(c1N)C(=O)c1ccccc1C2=O |
| 116 µM | 119 µM | Nc1ccc2c(c1)C(=O)c1ccccc1C2=O |
| > 1000 µM | > 1000 µM | Nc1ccc(N)c2c1C(=O)c1c(N)ccc(N)c1C2=O |
| > 1000 µM | > 1000 µM | Nc1ccc(O)c2c1C(=O)c1c(N)ccc(O)c1C2=O |
| > 1000 µM | > 1000 µM | Nc1ccc2c(c1)C(=O)c1ccc(N)cc1C2=O |
| 412 µM | 567 µM | Nc1ccc(N)c2c1C(=O)c1ccccc1C2=O |

| SMILES | IC50 (Glutamate NMDA receptor [1]) | IC50 (Glutamate NMDA receptor [2]) |
| --- | --- | --- |
| O=C1c2ccccc2C(=O)c2ccccc21 [ANTHRAQUINONE] | > 1000 µM | > 1000 µM |
